In data set [1] the test system is Candida albicans strain SC5314. Kind of data set: Antifungal MIC assay. It counts as cell-based. The note with it: 35° C., 48 hrs, RPMI with MOPS. How it is done: (§1) Cryptococcus neoformans serotype A strain H99 as well as Candida ablicans strain SC5314, were readily available in the lab. The stock of cells is stored at −80° C. to preserve the fungi and prevent contamination. The cells were grown and maintained in yeast extract-peptone-dextrose (YPD) media (Difco). Cryptococcus or Candida cells were incubated in YPD broth for 18 hrs at 30° C., in a shaking incubator. After the incubation period, they were washed three times in sterile phosphate-buffered saline (PBS) to remove all remaining residue of YPD. The cells were then quantified by using trypan blue dye exclusion in a hemocytometer.
(§2) C. albicans were suspended in RPMI with MOPS, 0.165M, at a concentration of 0.5×10^3 cells/mL. RPMI Mops media was added to a 96-well plate in a volume of 100 μL to every well, with the exception of column 1. An additional 80 μL of RPMI MOPS was added to column 4 for a total of 180 μL/per well. EIPE-1 was added to columns 2 and 4 with a volume of 20 μL at a concentration of 1 mg/mL. Contents were mixed, then serially diluted 100 μL down the plate until column 11. The last 100 μL was discarded, leaving column 12 blank. C. albicans was added at a volume of 100 μL per well from column 4 to column 12, so the final volume of the wells was 200 μL. Plates were incubated at 35° C. in a humid incubator for 48 hrs.

The subject of data set [2] is Cryptococcus neoformans serotype A strain H99. Kind of data set: Antifungal MIC assay. It counts as cell-based. The protocol: as §1
as §2, with “neoformans” for “albicans”, “MOPS” for “Mops”, “well. Amphotericin B or” for “well.”

Data set [3] relates to MRSA. Briefly: Kirby-Bauer disc diffusion assay. It counts as cell-based, Staphylococcus aureus. The protocol:
The susceptibility of MRSA to EIPE-1 was determined by the Kirby-Bauer disc diffusion method. Using a cotton swab applicator, a lawn of the S. aureus clinical isolate was placed onto Mueller Hinton agar plates to cover the entire surface of the plate. Filter discs (size=6 mm) were added onto the bacterial lawn. EIPE-1, DBI, and DMSO (10 μL each) were then added onto the filter discs.
The efficacy of compound EIPE-1 was tested by the Kirby-Bauer disc assay. The Kirby-Bauer disc assay assesses the sensitivity of bacteria to antimicrobial agents. If the bacteria are sensitive to the antimicrobial being tested, then a zone of inhibition of bacterial growth is seen around the filter disc containing the antimicrobial. The Kirby-Bauer disc assay was used to test the antimicrobial efficacy of EIPE-1 against MRSA. EIPE-1 was reconstituted at 1 mg/mL in DMSO and serially diluted (10^−1 to 10^−5) after which 10 μL of each dilution (and DMSO as a solvent control) was added to a separate disc on an LB plate inoculated with a lawn of bacteria. The plates were incubated at 37° C. for 24 h, and the resulting radii zone sizes around each disc were then measured.
For orientation: A growth-free zone around the sample is the usual read-out of agar diffusion tests.

The subject of data set [4] is MRSA. Briefly: Live/Dead staining and fluorescent microscopy. It counts as cell-based, Staphylococcus aureus. The note with it: 16 μg/mL, 17 μM, 30 minutes; Syto 9 and propidium iodide. The protocol: MRSA was grown overnight in 10 mL of LB broth, sub-cultured (5 mL of overnight culture added to 20 mL LB) and grown for 3 h. Bacterial culture (150 μL) were removed and transferred to a 1.5 mL centrifuge tube, which was treated with DMSO, EIPE-1 (0.01 mg/mL) or DBI (0.01 mg/mL) for 30 minutes. Equal amounts of the two dyes (SYTO 9 dye, 3.34 mM in DMSO), and propidium iodide (20 mM in DMSO) were mixed. Then 0.5 μL of the dye mixture was added to each tube of treated MRSA cultures. Wet mounts were prepared on glass slides for imaging live and dead MRSA, and Differential Interference Contrast (DIC) images were obtained using a Leica DMI600B fluorescent microscope. To determine the percentage of bacteria alive and dead, the total bacteria in each condition were counted in 20 fields of view and graphed using Prism 5.0.
To address MRSA viability in response to EIPE-1 treatment, a Live/Dead staining and microscopy was utilized. MRSA was treated with either DBI or EIPE-1 (16 μg/mL, 17 μM each) for 30 minutes (DMSO was used as a negative solvent control) and then stained with the dyes, Syto™ 9 and propidium iodide.

Data set [5] relates to methicillin resistant Staphylococcus aureus (MRSA) clinical isolate. Kind of data set: MIC by broth microdilution. It counts as cell-based. The settings on record: clinical isolate of MRSA from an adult CF patient; broth culture, 18 h at 37° C. The protocol: The methicillin resistant Staphylococcus aureus (MRSA) and Pseudomonas aeruginosa (PA) strains used in this study are clinical isolates obtained from an adult CF patient at the Cystic Fibrosis Clinic at the OU Children's Hospital (Oklahoma City, Okla.). Escherichia coli (E. coli) and Enterococcus faecalis (E. faecalis) were obtained from American Type Culture Collection (ATCC). The strains were grown overnight with shaking at 37° C. (220 RPM) in 15 mL of Luria-Bertani (LB) broth. The overnight culture was sub-cultured the next day before use for the MIC experiments. All sub-cultures consisted of 1 mL of the overnight culture, mixed with 10 mL of Mueller Hinton broth. The working stock of the EIPE-1 and DBI was prepared by dissolving 1 mg of each in 1 mL of DMSO.
The minimum inhibitory concentrations (MICs) were determined by the broth microdilution method, following the guidelines of the Clinical and Laboratory Standards Institute (CLSI). Two-fold serial dilutions of EIPE-1, DBI, and Arm (starting with 1 mg/mL) were prepared in a 100 μL volume in 96-well microtiter plates. The dilution series included DMSO as a negative control. The bacterial culture […] was normalized to an OD600 of 0.2 and was then added to each well. Plates were incubated with shaking at 220 RPM at 37° C., and the MIC was determined based on the lowest concentration at which no visible growth of the bacterial isolate was observed.
In order to determine the MIC of EIPE-1 on MRSA, a culture of MRSA was grown overnight in Mueller Hinton broth (MHB) at 37° C., sub-cultured by a 1/100 dilution into MHB and dispensed into a 96 well culture block (900 μL of diluted culture in each well). To each well either DMSO or a serial dilution of EIPE-1 was added, then the culture was grown for 18 h at 37° C. The next day each well was tested for either growth or inhibition of growth by measuring of the OD^600 of the resulting culture. […] For comparison, the MIC of EIPE-1 was also determined against E. faecalis (8 μg/mL, 9 μM), confirming activity against Gram-positive bacteria.
A general note: Broth dilution looks for growth in wells or tubes with falling amounts of substance.

Data set [6] relates to MRSA. Briefly: Recoverable CFU after exposure to DBI. Format: cell-based, Staphylococcus aureus. The settings on record: MRSA after 4 h of growth with DBI; DMSO control average 1.78×10^8. How it is done: To determine CFUs of PA and MRSA after exposure to DMSO, DBI, EIPE-1, Gentamicin or Methicillin, 10-fold serial dilutions were prepared in 96-well micro plates using multichannel pipettes. For each dilution, 25 ptL of each sample was pipetted onto a plate containing agar medium and incubated for 18 h at 37° C. The number of colonies for each dilution were counted and used to back calculate the number of bacteria per mL (CFU/mL) in each original bacterial culture.
After 4 h of growth, the resulting cultures were plated onto Mannitol Salts Agar (MSA). Decreased bacterial growth and decreased fermentation of the Mannitol (retention of the reddish hue of the MSA plate) could be seen in the MRSA culture exposed to DBI (FIG. 1A) which was confirmed with decreased recoverable CFUs (FIGS. 1B and 1C).

The next data set deals with HeLa cells. Kind of data set: Cytotoxicity, LDH leakage assay. Format: cell-based. The settings on record: 24-hour exposure, 250 μg/mL (610 μM). How it is done: HeLa cells were cultured in 96-well plates at 37° C. and 5% CO2 in Roswell Park Memorial Institute (RMPI) 1640 medium with 5% Fetal Bovine Serum (FBS). Once HeLa cells reached 95% confluency, the media was replaced with media containing various concentrations of EIPE-1, DBI or DMSO for 24 hours. Cell cytotoxicity was measured using the lactate dehydrogenase (LDH) leakage assay. Results were compared to maximum values of lysed cells in control wells and were graphed as percent relative cytotoxicity using Prism 5.0.
Host cell cytotoxicity against HeLa cells was examined for both DBI and EIPE-1 (FIG. 2B). LDH release was examined after 24-hour exposure to varying concentrations of DBI, DMSO and EIPE-1. […] Thus, EIPE-1 is relatively safe to use with respect to eukaryotic cells.
For orientation: Release of lactate dehydrogenase indicates damage to the cell membrane.

Values after ≈ are worked out from the molar mass of the structure shown.

Take `C[C@@H]1[C@H](O)[C@@H](C)/C=C/C=C/C=C/C=C/C=C/C=C/C=C/[C@H](O[C@@H]2O[C@H](C)[C@@H](O)[C@H](N)[C@@H]2O)C[C@@H]2O[C@](O)(C[C@@H](O)C[C@@H](O)[C@H](O)CC[C@@H](O)C[C@@H](O)CC(=O)O[C@H]1C)C[C@H](O)[C@H]2C(=O)O` [Amphotericin B, reference compound]: the “Minimum inhibitory concentration (MIC) for the isolate of C. albicans” value in data set [1] stood at 0.5606 ± 0.1219 µg/mL. The “Minimum inhibitory concentration (MIC) for the isolate of C. neoformans” value in data set [2] (35° C., 48 hrs, RPMI with MOPS) stood at 0.6825 ± 0.2925 µg·mL. The “minimum inhibitory concentration average, C. neoformans” value in data set [2] (across four experiments) came out at 0.6 µg/mL (≈ 0.649 µM).

With `CN(C)CCCOc1ccc(I)cc1` [arms], in the data set on MRSA [3], the “antimicrobial activity independent of the DBI core” value is recorded as “did not exhibit any antimicrobial activity”.

For the molecule `COC(=O)c1cc2c(Br)c(OC)c(OC)c(Br)c2n1C` [DBI, methyl 4,7-dibromo-5,6-dimethoxy-1-methyl-1H-indole-2-carboxylate], the “Live/Dead staining (green = intact membrane, red = damaged membrane)” value in the data set with MRSA [4] is listed as “mostly stained green”. Also, the “minimum inhibitory concentration (MIC)” value in data set [5] was “could not be determined”. Also, in the data set on MRSA [6], the “recoverable CFUs (average)” value is 1.19×10^7 CFU/mL. The “cytotoxicity (LDH release)” value in the data set on HeLa cells is 30%.

The values are drawn from patent US11730717B1, “Melanin-inspired antimicrobial” (The Board of Regents for the Oklahoma Agricultural and …, priority 2020, dated 2023).
